# Experimental data: EP1192149B1, “1,4-DITHIIN AND 1,4-DITHIEPIN- 1,1,4,4, TETROXIDE DERIVATIVES USEFUL AS ANTAGONISTS OF THE HUMAN GALANIN RECEPTOR” (Ortho-McNeil Pharmaceutical, Inc., priority 1999, dated 2000)
# pIC50: −log10 of the molar value. Where two headings read alike, the source gives them in different places.
# Tests used:
# [1] = biological target: T1, hGALR-1 (Homo sapiens, UniProt P47211); assay: Human Galanin-1 Receptor Binding Assay (SPA, 125I human galanin displacement); settings: membranes from human Bowes melanoma cells
# T1 construct: hGALR-1 that is contained in membranes from human Bowes melanoma cells; endogenous in cells; host or cells: human Bowes melanoma cells (membranes)
# T1 sequence (P47211 1-349): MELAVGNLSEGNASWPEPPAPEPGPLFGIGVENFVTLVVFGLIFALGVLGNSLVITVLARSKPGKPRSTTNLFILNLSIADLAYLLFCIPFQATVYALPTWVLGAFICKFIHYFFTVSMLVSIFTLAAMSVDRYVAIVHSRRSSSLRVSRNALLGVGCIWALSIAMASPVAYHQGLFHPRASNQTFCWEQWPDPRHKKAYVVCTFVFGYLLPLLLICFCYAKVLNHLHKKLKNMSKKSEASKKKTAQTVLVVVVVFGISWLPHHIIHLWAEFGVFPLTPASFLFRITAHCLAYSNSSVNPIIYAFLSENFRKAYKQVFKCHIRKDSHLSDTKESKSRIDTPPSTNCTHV
# Protocol: This assay determines the concentration (IC50) of a test compound which prevents 50% of galanin from binding to the hGALR-1 that is contained in membranes from human Bowes melanoma cells bound to wheat germ agglutinin conjugated Scintillation Proximity Assay (SPA) beads. The IC50 value is obtained by measuring the effect of half log increment dilutions of the test compound in duplicate using a 96-well plate (eight-rows, 12-columns).
# The SPA beads (500 mg) were dissolved in 12.5 mL of assay buffer composed of 20mM DMSO-HEPES (pH 7.4), 0.1% bovine serum albumin, 2mM MgCl2, 2mM CaCl2, and protease inhibitors. Enough of this suspension for five plates (25 µL x 5 x 96 wells = 12000 µL) was dispensed into a 50 mL sterile Falcon tube. The amount of membranes required for five plates was then added (50µg x 5 x 96 wells), followed by 32.5 mL of 30% DMSO-HEPES buffer. The mixture was placed on a rotator and agitated for 0.5 hours and the non-specific binding sites on the beads were blocked by the addition of 5% [final] fetal bovine serum. Each well of the 96-well plate received 100 µL of this mixture.
# To the control column (column 12) rows A and B was added 3.75 µL of a 300 µM solution of galantide in 30% DMSO-HEPES buffer, to rows C and D was added 3.75 µL of 30% DMSO-HEPES buffer and to rows E and F was added 3.75 µL of a 300 µM solution of galanin in 30% DMSO-HEPES buffer. In columns 1 through 11 were added solutions of the test compound in 30% DMSO-HEPES buffer starting at 30 µM and decreasing in concentration in half-log dilutions. A solution of radioactive ^125I human galanin (46.25 µL), prepared from 25 micro Curies of ^125I human galanin (2000 ci/mmol) and 500 µL of assay buffer, was added to each well. The plate was sealed with adhesive paper and incubated for 16 hr at room temperature before the quench-corrected bound radioactivity was measured in a Topcount® apparatus. For each dilution, the % inhibition of galanin binding was calculated as follows: Total binding (T) = Mean counts/minute (cpm) in row C and D in column 12 [formula] Non-specific binding (NSB) = Mean cpm in row E and F in column 12 [formula] Total specific binding (TS) = T-NSB [formula] cpm in each well = C [formula] net cpm in each well (N) = C-NSB [formula] % inhibition = 100%-N × 100%/TS [formula]
# The IC50 values for each compound were calculated from the non-linear regression curve of the data using Prism® graphics software.
# [2] = biological target: T2, Rat Galanin-1 Receptor (Rattus norvegicus, UniProt Q62805); assay: Galanin-1 receptor mediated inhibition of acetylcholine release from rat brain cortical slices (superfusion, K+-evoked [3H]acetylcholine efflux); settings: for Acetycholine Secretion Stimulated (change vs Control) / Acetycholine Secretion Stimulated: K+-evoked; for Acetycholine Secretion Basal / Acetycholine Secretion Stimulated: mean fractional tritium release
# T2 construct: Rat brain cerebrocortical tissues were chopped into slices; from tissue; host or cells: rat brain cerebrocortical slices
# T2 sequence (Q62805 1-346): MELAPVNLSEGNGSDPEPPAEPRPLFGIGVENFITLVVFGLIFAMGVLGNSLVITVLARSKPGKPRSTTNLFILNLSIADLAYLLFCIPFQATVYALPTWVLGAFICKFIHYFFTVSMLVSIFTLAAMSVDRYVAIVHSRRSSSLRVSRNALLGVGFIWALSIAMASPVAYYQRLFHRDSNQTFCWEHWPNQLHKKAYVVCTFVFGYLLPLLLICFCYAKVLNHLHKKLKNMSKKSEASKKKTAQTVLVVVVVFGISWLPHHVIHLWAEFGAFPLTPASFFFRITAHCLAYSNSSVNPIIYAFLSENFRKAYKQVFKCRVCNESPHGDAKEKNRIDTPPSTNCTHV
# Protocol: Rat brain cerebrocortical tissues were chopped into slices of 300 x 300 x […] using a Mcllwain tissue chopper. The slices were washed and incubated at 37°C for 30 min in Krebs-Ringer solution: NaCl 118 mM, KCI 4.8 mM, CaCl2 1.3 mM, KH2PO4 1.2 mM, MgSO4 1.2 mM, NaHCO3, 25 mM, glucose […], ascorbic acid […] (previously aerated for 10 min with 95% O2/5% CO2 to obtain a pH of 7.4) and 0.1 µM [Methyl-^3H]choline chloride (85 Ci/mmol, Amersham Life Sciences, Arlington Heights, IL). After incubation, the slices were washed three times with ice-cold physiological solution and resuspended in 6 ml of cold solution. Equal aliquots of the tissue suspension were placed in each of 6 parallel superfusion chambers (Hugo Sachs Elektronik, March-Hugstetten, Germany). A circular piece of nylon mesh (pore size 250 um) was placed just below each chamber outlet in order to prevent the loss of tissue. The chambers were perfused against gravity with oxygenated Krebs-Ringer containing 1 mM physostigmine hemisulfate at a flow rate of 1 ml/min. At the concentration used, physostigmine had no effect on the release of total radioactivity from tissue slices. The onset of superfusion was defined as time zero (t0). Starting at 30 min after t0, 10 min fractions of the effluent were collected.
# Release of [^3H]acetylcholine was induced by superfusing tissues for 30 sec with 65mM K^+-Krebs-Ringer solution (made by isomolar replacement of NaCl with KCI). Four potassium pulses were given respectively at 40 min (S1), 70 min (S2), 100 min (S3) and 130 min (S4) after to. No significant deterioration in fractional release was observed during the 4 consecutive stimuli. […] To permit construction of concentration-effect curves, concentrations of agents were increased 10 fold between each stimulus.
# Following perfusion, the tissue was homogenized in 1 ml ethanol and aliquots of superfusates (0.4ml) and tissue homogenates (0.04ml) were added to 5 ml of Scintsafe PlusTM 50% (Fisher Scientific, Pittsburgh, PA) and radioactivity counted by liquid scintillation spectrometry. The total ^3H content in this procedure consisted mainly of [^3H]acetylcholine.
# Tritium (^3H) efflux into the superfusate was calculated as the fraction of tritium content in the slices or synaptosomes at the onset of the respective collection period. For calculation of the stimulated tritium overflow, the estimated basal efflux (the average of the 10 min fractions immediately before and after each stimulation) was subtracted from the total tritium efflux during the 10 min fraction which began with the 30 sec K^+ pulse. This difference was then used to calculate the percent of K^+-evoked release of acetylcholine.
# In order to quantify the in vitro effect of a drug on stimulated tritium outflow, the ratio of the fraction released by a given pulse, Sn, to that evoked by S1, was determined. Data presented below are expressed as the mean fractional tritium release ± S.E.M. Statistical differences between treatments were tested by the two-tailed Student's t test or the two factor ANOVA as appropriate. Individual differences in the dose-response curve was evaluated by the Newman-Keul multiple comparison.
# [3] = Table II, formula (II) compounds, read-out: hGAL IC50
# [4] = Table I, formula (I) compounds, read-out: HGAL IC50
Structure (SMILES),"pIC50 [1, 3]",other results
O=S1(=O)C=C(c2ccc(Oc3ccccc3)cc2)S(=O)(=O)CCC1 [Cmpd 19],6.39,
O=S1(=O)C=C(c2ccc(-c3ccccc3)cc2)S(=O)(=O)CCC1 [Cmpd 24],6.22,
O=S1(=O)C=C(c2ccc(F)cc2)S(=O)(=O)CCC1 [Cmpd 14],6.39,
O=S1(=O)C=C(c2cccc(Br)c2)S(=O)(=O)CCC1 [Cmpd 9],6.05,
O=S1(=O)C=C(c2ccccc2F)S(=O)(=O)CCC1 [Cmpd 29],6.37,
O=S1(=O)C=C(c2ccc(C(F)(F)F)cc2)S(=O)(=O)CCC1 [Cmpd 22],5.68,
NC(Cc1ccccc1)C1=CS(=O)(=O)CCS1(=O)=O (centres unmarked) [Cmpd 3],,"pIC50 [1, 4]: 5.10"
O=S1(=O)C=C(c2ccc(C3CCCCC3)cc2)S(=O)(=O)CCC1 [Cmpd 25],5.96,
O=S1(=O)C=C(c2ccccc2Cl)S(=O)(=O)CCC1 [Cmpd 12],6.19,
O=S1(=O)C=C(c2cccs2)S(=O)(=O)CCC1 [Cmpd 40],5.89,
O=S1(=O)C=C(c2ccccc2Br)S(=O)(=O)CCC1 [Cmpd 30],6.24,
O=S1(=O)C=C(c2cccc(F)c2)S(=O)(=O)CCC1 [Cmpd 16],,Acetycholine Secretion Basal (change vs Control) ([2]; 1 µM+GAL): -38.9%; Acetycholine Secretion Stimulated (change vs Control) ([2]; 1 µM+GAL): -23.9%; Acetycholine Secretion Basal ([2]; 1 µM+GAL): 2.20; Acetycholine Secretion Basal (change vs Control) ([2]; 10 µM+GAL): -37%
O=S1(=O)C=C(c2cccc(C(F)(F)F)c2)S(=O)(=O)CCC1 [Cmpd 11],6.22,
CCc1ccc(C2=CS(=O)(=O)CCCS2(=O)=O)cc1 [Cmpd 26],6.37,
Cc1ccccc1C1=CS(=O)(=O)CCCS1(=O)=O [Cmpd 18],5.80,
O=S1(=O)C=C(c2ccc(I)cc2)S(=O)(=O)CCC1 [Cmpd 17],6.15,Acetycholine Secretion Basal (change vs Control) ([2]; 1 µM+GAL): -39.2%; Acetycholine Secretion Stimulated (change vs Control) ([2]; 1 µM+GAL): -35.2%; Acetycholine Secretion Stimulated ([2]; 1 µM+GAL): 5.37; Acetycholine Secretion Basal ([2]; 1 µM+GAL): 2.19; Acetycholine Secretion Basal (change vs Control) ([2]; 10 µM+GAL): -37%; Acetycholine Secretion Stimulated (change vs Control) ([2]; 10 µM+GAL): -22.3%; Acetycholine Secretion Stimulated ([2]; 10 µM+GAL): 6.44; Acetycholine Secretion Basal ([2]; 10 µM+GAL): 2.27
O=C(Oc1ccccc1)c1cccc(C2=CS(=O)(=O)CCCS2(=O)=O)c1 [Cmpd 33],6.36,
CCCNC(=O)c1ccc(C2=CS(=O)(=O)CCCS2(=O)=O)cc1 [Cmpd 36],5.98,

Structure (SMILES),"pIC50 [1, 3]",other results
CCOc1ccc(C2=CS(=O)(=O)CCCS2(=O)=O)cc1 [Cmpd 28],6.23,
O=S1(=O)C=C(c2ccc(S(=O)(=O)c3ccccc3)cc2)S(=O)(=O)CCC1 [Cmpd 35],5.80,
Cc1cccc(C2=CS(=O)(=O)CCCS2(=O)=O)c1 [Cmpd 6],5.89,
O=S1(=O)C=C(c2cccc(Cl)c2)S(=O)(=O)CCC1 [Cmpd 8],6.00,
CCOC(=O)c1ccc(C2=CS(=O)(=O)CCCS2(=O)=O)cc1 [Cmpd 34],6.00,
O=S1(=O)C=C(c2ccsc2)S(=O)(=O)CCC1 [Cmpd 41],5.89,
O=S1(=O)C=C(c2ccccc2C(F)(F)F)S(=O)(=O)CCC1 [Cmpd 31],6.24,
O=S1(=O)C=C(c2ccc(Br)cc2)S(=O)(=O)CCC1 [Cmpd 13],6.59,
O=C(NCCc1ccccc1)c1ccc(C2=CS(=O)(=O)CCCS2(=O)=O)cc1 [Cmpd 38],5.98,
O=S1(=O)C=C(c2ccccc2)S(=O)(=O)CCC1 [Cmpd 5],5.57,
COc1ccccc1C1=CS(=O)(=O)CCCS1(=O)=O [Cmpd 32],6.00,
O=S1(=O)C=C(c2cccc(I)c2)S(=O)(=O)CCC1 [Cmpd 27],6.07,
COc1cccc(C2=CS(=O)(=O)CCCS2(=O)=O)c1 [Cmpd 7],6.04,
O=S1(=O)C=C(c2cccc(OC(F)(F)F)c2)S(=O)(=O)CCC1 [Cmpd 20],5.57,
CCCCOc1ccc(C(=O)NC(Cc2ccccc2)C2=CS(=O)(=O)CCS2(=O)=O)cc1 (centres unmarked) [Cmpd 4],,"pIC50 [1, 4]: 6.00"
O=S1(=O)C=C(c2ccc(OC(F)(F)F)cc2)S(=O)(=O)CCC1 [Cmpd 23],6.31,
O=S1(=O)C=C(c2cccc3ccccc23)S(=O)(=O)CCC1 [Cmpd 37],6.43,
O=S1(=O)C=C(c2ccccc2)S(=O)(=O)CC1 [Cmpd 1],,"pIC50 [1, 4]: 5.57"
